Assay results published in article PMC11596536, “Unveiling the Anticancer Potential of a New Ciprofloxacin-Chalcone Hybrid as an Inhibitor of Topoisomerases I & II and Apoptotic Inducer” (Molecules, 2024).

Molecular target: T1, Topoisomerase I (Homo sapiens, UniProt P11387)
T1 construct: gene TOP1
T1 sequence (P11387 2-765): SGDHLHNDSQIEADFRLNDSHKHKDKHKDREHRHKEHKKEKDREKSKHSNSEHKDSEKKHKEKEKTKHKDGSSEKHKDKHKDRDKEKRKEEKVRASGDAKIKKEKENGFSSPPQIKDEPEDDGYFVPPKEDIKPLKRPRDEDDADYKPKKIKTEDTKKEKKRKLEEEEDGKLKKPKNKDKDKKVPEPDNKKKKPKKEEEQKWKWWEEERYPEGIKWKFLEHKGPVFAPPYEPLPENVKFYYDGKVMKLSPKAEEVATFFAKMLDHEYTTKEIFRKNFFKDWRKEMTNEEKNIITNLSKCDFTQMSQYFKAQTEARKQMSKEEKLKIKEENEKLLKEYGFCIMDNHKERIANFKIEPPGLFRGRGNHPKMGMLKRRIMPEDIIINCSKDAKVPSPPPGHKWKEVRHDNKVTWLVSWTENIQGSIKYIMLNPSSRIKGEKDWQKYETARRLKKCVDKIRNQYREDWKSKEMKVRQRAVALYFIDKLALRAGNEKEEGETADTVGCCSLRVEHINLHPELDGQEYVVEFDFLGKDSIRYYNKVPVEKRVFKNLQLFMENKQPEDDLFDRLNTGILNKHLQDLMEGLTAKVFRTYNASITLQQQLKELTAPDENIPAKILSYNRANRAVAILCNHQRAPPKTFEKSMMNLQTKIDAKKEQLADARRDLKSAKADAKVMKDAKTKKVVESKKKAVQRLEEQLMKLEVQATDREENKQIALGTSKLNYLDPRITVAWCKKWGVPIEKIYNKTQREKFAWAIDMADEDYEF
Test: Topo I DNA relaxation assay (commercial kit), agarose gel electrophoresis
Type: biochemical

IC50: 37.5 µM
SMILES: O=C(/C=C/c1ccc(Cl)cc1)c1ccc(NC(=O)N2CCN(c3cc4c(cc3F)c(=O)c(C(=O)O)cn4C3CC3)CC2)cc1 [compound 2, 7-(4-((4-(3-(4-Chlorophenyl)acryloyl)phenyl)carbamoyl)piperazin-1-yl)-1-cyclopropyl-6-fluoro-4-oxo-1,4-dihydroquinoline-3-carboxylic acid]
